EPA's ToxValDB 9.5

Tested on: Rattus norvegicus
Conditions: oral
[1] = subchronic, gavage, M, Sprague-Dawley, Hematology: RBC decrease, Hgb decrease, Ret increase + Blood Chemistry: Cho increase, PL increase + Absolute Organ Weight: Kidney increase…
[2] = short-term, duration: 28 days, gavage, F, Sprague-Dawley, Clinical Observation: Locomotor activity decrease, Crouching position + Functional Observational Battery: Reactivity decrease + Body Weight …
[3] = short-term, duration: 28 days, gavage, M, Sprague-Dawley, Clinical Observation: Locomotor activity decrease, Crouching position + Functional Observational Battery: Reactivity decrease + Body Weight …
[4] = short-term, duration: 28 days, gavage, F, Sprague-Dawley, Clinical Observation: Staggering gait Locomotor activity decrease, Lacrimation Prone position Loose stool + Functional Observational Battery…
[5] = short-term, duration: 28 days, gavage, M, Sprague-Dawley, Clinical Observation: Staggering gait Locomotor activity decrease, Lacrimation Prone position Loose stool + Functional Observational Battery…

Question: Which NOAEL (subchronic, duration: 13 weeks, diet, M, CIVO, Wistar-derived, Relative Organ Weight: Kidney increase, Liver decrease + Histopathology: Kidney-Increased granularity, tubular epithelial cells) does the source give for CCCCCCC[CH2][Sn]([S]CC(=O)OCCCCCC(C)C)([S]CC(=O)OCCCCCC(C)C)[S]CC(=O)OCCCCCC(C)C here?
Answer: 28.8 mg/kg-day

Question: And the NOAEL (subchronic, duration: 13 weeks, drinking water, M/F, CIVO, Wistar-derived, Urinalysis: Epithelial cell increase, Crystals increase + Hematology: HGB decrease + Blood Chemistry: BUN increase + Relative Organ Weight: …)?
Answer: < 45.6 mg/kg-day

Question: For C=CC(=O)N(C)C [N,N-Dimethylacrylamide], which NOEL (short-term, duration: 28 days, gavage, M/F, Sprague-Dawley, Functional Observational Battery: Urination increase, Rearing decrease, Unkempt fur Motor activity decrease + Body Weight Changes: decrease…) is on record?
Answer: 20 mg/kg-day

Question: Which NOEL (subchronic, gavage, M, Sprague-Dawley, Deaths + Clinical Observation: Black area of the pinna Nodule of the tail Dark purple distally of the tail Reddish urine + Body Weight …) does the source give for S=c1[nH]c(=S)[nH]c(=S)[nH]1 [Trithiocyanuric acid] here?
Answer: < 62.5 mg/kg-day

Question: With CCC(C)=NO [2-Butanone oxime] as the compound, how does the NOEL (subchronic, drinking water, F, Fischer 344, Clinical Observation: Dark eyes Pale ears + Body Weight Changes: decrease + Water Consumption: decrease + Hematology: Hct decrease, Hgb …) read?
Answer: < 30 mg/kg-day

Question: And the NOEL (subchronic, drinking water, M/F, Fischer 344, Clinical Observation: Dark eyes Pale ears + Body Weight Changes: decrease + Water Consumption: decrease + Hematology: Hct decrease, Hgb …)?
Answer: < 47.4 mg/kg-day

Question: With Sc1ccccc1 [Benzenethiol] as the compound, how does the LOAEL [1] read?
Answer: 0.4 mg/kg-day

Question: What about the LOEL [1] of the same compound?
Answer: 0.4 mg/kg-day

Question: What about the NOAEL [1] of the same compound?
Answer: < 0.4 mg/kg-day

Question: And the NOEL [1]?
Answer: < 0.4 mg/kg-day

Question: Which NOAEL (short-term, duration: 28 days, gavage, M/F, Sprague-Dawley, Deaths + Clinical Observation: Salivation Red/brown staining around the mouth Hunched posture + Body Weight Changes: Body weight gain …) does the source give for CCC[N+](=O)[O-] [1-Nitropropane] here?
Answer: 30 mg/kg-day

Question: How did the NOEL (subchronic, gavage, M, Sprague-Dawley, Clinical Observation: Transient salivation + Histopathology: Mesentric lymph node-Granuloma R) turn out when Nc1cc(C(=O)O)ccc1Cl [3-Amino-4-chlorobenzoic acid] was run?
Answer: 200 mg/kg-day

Question: Which NOEL (subchronic, duration: 13 weeks, diet, M/F, Fischer 344, Deaths + Body Weight Changes: decrease + Food Consumption: decrease + Absolute Organ Weight: Liver decrease + Relative Organ Weight: Liver …) does the source give for C[C@](N)(Cc1ccc(O)c(O)c1)C(=O)O.C[C@](N)(Cc1ccc(O)c(O)c1)C(=O)O.O.O.O [Methyldopa sesquihydrate] here?
Answer: < 298 mg/kg-day

Question: Which results are given for Clc1cccc2ccccc12 [1-Chloronaphthalene]?
Answer: LOEL [2]: 100 mg/kg-day; NOEL [2]: 30 mg/kg-day; LOEL [3]: 100 mg/kg-day; NOEL [3]: 30 mg/kg-day

Question: How did the LOEL [4] turn out when NC(=O)Nc1ccccc1 [1-Phenylurea] was run?
Answer: 400 mg/kg-day

Question: What about the NOEL [4] of the same compound?
Answer: 200 mg/kg-day

Question: And the LOEL [5]?
Answer: 200 mg/kg-day

Question: And the NOEL [5]?
Answer: 100 mg/kg-day

Question: How did the NOEL (subchronic, duration: 42 days, gavage, M, CD(SD), Clinical Observation: Salivation + Body Weight Changes: Weight gain decrease + Hematology: PT increase, APTT increase, Fibrinogen increase…) turn out when C1=CCCC=CCCC=CCC1 [1,5,9-Cyclododecatriene] was run?
Answer: 12 mg/kg-day

Question: And the NOAEL (subchronic, duration: 55 days, gavage, M, Sprague-Dawley, Body Weight Changes: Weight gain decrease + Food Consumption: increase + Urinalysis: Vol increase + Blood Chemistry: TG decrease + Absolute …)?
Answer: 30 mg/kg-day

Question: How did the NOAEL (subchronic, duration: 90 days, diet, M/F, Wistar, Food Consumption: increase + Urinalysis: Volume increase, Specific gravity decrease, pH increase, Crystals increase + Hematology: RBC …) turn out when [CH3][Sn]([Cl])([Cl])[Cl] [Trichloromethylstannane] was run?
Answer: 14.4 mg/kg-day

Question: O=C/C=C/[O-].[Na+] [Malonaldehyde, sodium salt] was tested. Which NOEL (subchronic, duration: 13 weeks, gavage, M/F, Fischer 344, Deaths + Clinical Observation: Rough hair coats Red exudate around the eyes Impairment of hindleg motor ability + Body Weight Changes: …) did it give?
Answer: 30 mg/kg-day

Question: Cc1cc(O)c2c(c1)C(=O)c1cc(O)cc(O)c1C2=O [Emodin] was tested. Which NOEL (chronic, duration: 14 weeks, diet, M/F, Fischer 344, Clinical Observation: Body color change Diarrhea + Body Weight Changes: decrease. >2500 + Food Consumption: decrease + Hematology: Hct …) did it give?
Answer: < 24.4 mg/kg-day
